Results from patent US20230181482A1, “LIPIDS FOR DELIVERY OF NUCLEIC ACID SEGMENTS” (AstraZeneca AB, priority 2021, published 2023).

Tests used:
Female BALB/c mice = experiment: eGFP expression in the liver at 24 hours after intravenous administration of LNP formulations to mouse (ELISA); assay type: in vivo; conditions: LNP N/P 3:1, DMPE-PEG2000
From the text: Female BALB/c mice were purchased (SPF (Beijing) Laboratory Animal Technology Co. Ltd.) and on arrival were caged in groups of 4 on corncob bedding, with normal diet and were provided tap drinking water ad libitum that was purified and autoclaved before being offered to the animal. The environment was maintained at a target temperature of […] and relative humidity of 40-80%, with a 12-hour light/dark cycle. Animals were acclimatised to the housing conditions for at least 7 days prior to any experimental procedures and were approximately 6-8 weeks of age at the start of dosing
Animals were assigned to respective groups such that the mean body weights for each treatment groups will be equal. N=4 for each treatment group.
Formulations 1, 3, 4, 5, and 6 from Example 58 were each dosed intravenously: Each mouse was removed from its cage and restrained, and then dosed with a slow IV bolus of a formulation in the lateral tail vein at a dose […] of 0.3 mg/kg.
All animals were sacrificed 24 hours after dosing and flowing blood sampling the liver for the animals dosed by the IV route and the liver and muscle at the dose site for the IM dosed animals were harvested for eGFP analysis by ELISA.
Additional LNP formulations were prepared according to the procedures described in Example 46. These formulations were tested using the same protocol as described herein. The results of eGFP expression in the liver at 24 hours after intravenous administration of the formulations were summarized in Tables 3, 4, 5 and 6 below.

[1] = mRNA encapsulation efficiency of LNP formulations (Quant-it Ribogreen assay with Triton-X100); assay type: physicochemical; conditions: N/P ratio 3:1, DMPE-PEG2000
Method: (§1) A solution of eGFP mRNA (purchased from TriLink Biotechnologies) in citrate buffer was prepared by mixing mRNA dissolved in MilliQ-water, 100 mM citrate buffer (pH 3) and MilliQ-water to give a solution of 50 mM citrate. Lipid solution in ethanol (99.5%) was prepared with four different lipid components: ionizable lipid (see Table 1); cholesterol (Sigma-Aldrich); DSPC (distearoyl phosphatidyl choline, Avanti Polar Lipids Inc); and a polymer-conjugated lipid (see Table 1). The ratio of lipids in all experiments was ionizable lipid/cholesterol/DSPC/polymer-conjugated lipid (50/38.5/10/1.5 mol %). The total concentration of lipids in all experiments was 12.5 mM.
(§2) The mRNA and lipid solutions were mixed in a NanoAssemblr (Precision Nanosystems, Vancouver, BC, Canada) microfluidic mixing system at a mixing ratio of Aq:EtOH=3:1 and a constant flow rate of 12 mL/min. The mRNA in citrate buffer solution was prepared such that, at the time of mixing the ratio between the nitrogen atoms on the ionizable lipid and phosphorus atoms (N/P ratio) on the mRNA chain was either 3:1 or 6:1 (see Table 1).
The final mRNA concentration and encapsulation efficiency percentage (% EE) was measured by Quant-it Ribogreen Assay Kit (ThermoFischer Scientific Inc.) using Triton-X100 to disrupt the LNPs. The mRNA encapsulation efficiency was determined according to the following equation: […]

[2] = LNP particle size by dynamic light scattering (Zetasizer Nano ZS); assay type: physicochemical; conditions: N/P ratio 3:1, DMPE-PEG2000
Method: as §1, §2
The first 0.2-0.35 mL and the last 0.05-0.1 mL of the LNP suspension prepared were discarded while the rest of the volume was collected as the sample fraction. The size of the mRNA lipid nanoparticles was determined by dynamic light scattering measurements using a Zetasizer Nano ZS from Malvern Instruments Ltd, giving directly the z-average particle diameter. The number-weighted particle size distributions and averages were calculated using a particle refractive index of 1.45.

% EE ([1]; Table 4) [%]	<d>N (nm) ([2]; Table 4)	<d>Z (nm) ([2]; Table 4)	% EE ([1]; Table 6) [%]	<d>N (nm) ([2]; Table 6)	<d>Z (nm) ([2]; Table 6)	Compound	Liver eGFP protein (ng/g tissue) (Female BALB/c mice; Table 4, 0.3 mg/kg)	Liver eGFP protein (ng/g tissue) (Female BALB/c mice; Table 6, 0.3 mg/kg)	further results
92	57	75	–	–	–	CCCCCCCCCOC(=O)CCCCCC(CCCCCC(=O)OC(CCCCCCCC)CCCCCCCC)NC1CC2(COC2)C1 (stereo not shown) [Compound 19, 1-(heptadecan-9-yl) 13-nonyl 7-((2-oxaspiro[3.3]heptan-6-yl)amino)tridecanedioate]	9938.1	–	–
–	–	–	89	62	82	CCCCCCCCC(CCCCCCCC)OC(=O)CCCCCCCC(CCCCCCCC(=O)OC(CC)CCCC)NCC1CCOC1 (stereo not shown) [Compound 47, 1-(heptadecan-9-yl) 17-(heptan-3-yl) 9-(((tetrahydrofuran-3-yl)methyl)amino)heptadecanedioate]	–	13883.6	–
–	–	–	95	55	71	CCCCCCCCC(CCCCCCCC)OC(=O)CCCCCCCC(CCCCCCCC(=O)OCC1CC1CCCCCC)NCC1CCOC1 (stereo not shown) [Compound 52, 1-(heptadecan-9-yl) 17-((2-hexylcyclopropyl)methyl) 9-(((tetrahydrofuran-3-yl)methyl)amino)heptadecanedioate]	–	4701.7	–
97	53	67	–	–	–	CCCCCCCCCOC(=O)CCCCCC(CCCCCC(=O)OC(CCCCCCCC)CCCCCCCC)NCC1COC1 (stereo not shown) [Compound 20, 1-(heptadecan-9-yl) 13-nonyl 7-((oxetan-3-ylmethyl)amino)tridecanedioate]	9757.7	–	–
97	67	86	–	–	–	CCCCCC(CCCCC)CCOC(=O)CCCCCCCCC(CCCCCCCCC(=O)OCCC(CCCCC)CCCCC)NCC1COC1 [Compound 18, bis(3-pentyloctyl) 10-((oxetan-3-ylmethyl)amino)nonadecanedioate]	6817.5	–	–
91	61	78	–	–	–	CCCCCC(CCCCC)CCOC(=O)CCCCCCCCC(CCCCCCCCC(=O)OCCC(CCCCC)CCCCC)NCC1CCCCO1 (stereo not shown) [Compound 16, bis(3-pentyloctyl) 10-(((tetrahydro-2H-pyran-2-yl)methyl)amino)nonadecanedioate]	1393.4	–	–
97	55	98	–	–	–	CCCCCCCCC(CCCCCCCC)OC(=O)CCCCCCC(CCCCCCC(=O)OCCC(CCCCCCC)CCCCCCC)NC1CC2(COC2)C1 (stereo not shown) [Compound 27, 1-(heptadecan-9-yl) 15-(3-heptyldecyl) 8-((2-oxaspiro[3.3]heptan-6-yl)amino)pentadecanedioate]	4982.6	–	–
96	51	68	–	–	–	CCCCCCC(CCCCCC)COC(=O)CCCCCCCC(CCCCCCCC(=O)OCC(CCCCCC)CCCCCC)NC1CC2(COC2)C1 [Compound 34, Bis(2-hexyloctyl) 9-((2-oxaspiro[3.3]heptan-6-yl)amino)heptadecanedioate]	11015.4	–	–
–	–	–	–	–	–	CCCCCCCCC(CC)OC(=O)CCCCCCCC(CCCCCCCC(=O)OC(CCCCCCCC)CCCCCCCC)NC1CC2(COC2)C1 (stereo not shown) [Compound 38, 1-(heptadecan-9-yl) 17-(undecan-3-yl) 9-((2-oxaspiro[3.3]heptan-6-yl)amino)heptadecanedioate]	–	–	Liver eGFP protein (ng/g tissue) (Female BALB/c mice; Table 5, 0.3 mg/kg): 9730.7 ng/g tissue; % EE ([1]; Table 5): 97%; <d>N (nm) ([2]; Table 5): 61 nm; <d>Z (nm) ([2]; Table 5): 76 nm
–	–	–	90	60	80	CCCCCCCCC(CCCCCCCC)OC(=O)CCCCCCCC(CCCCCCCC(=O)OC(C)CCCCC)NCC1CCOC1 (stereo not shown) [Compound 48, 1-(heptadecan-9-yl) 17-(heptan-2-yl) 9-(((tetrahydrofuran-3-yl)methyl)amino)heptadecanedioate]	–	14749.9	–
